Holding throughout (format): cell-based, human
Assay [1] concerns T cell lines primed in vitro to Der p II. The assay can be described thus: secondary proliferation of Der p II-primed T cell lines (Examples VIII, X, XI). Conditions: for T cell reactivity: overlapping Der p II peptides, FIG. 9; for T cell response: patient 348, native Der p II primed, data not shown. As to the method: Experiments similar to those of Example V were performed to determine the T cell-reactive areas of the Der p II protein. For example, PBMC from house dust mite-allergic patient 348 were isolated as described in Example V and were stimulated in vitro with 20 μg/ml purified native Der p II.
The above procedure was followed with a number of patients except in individual cases, T cell lines were primed with recombinant Der p II at 20 μg/ml or at 3 μg/ml and x-irradiated (3500 Rads) autologous PBMC were used as antigen-presenting cells. The data was analyzed as described in Example V, except the ranked sum of peptide responses was analyzed assigning a value of 3, 2 or 1 to the three highest S.I. responses.
A study similar to that described in Example VII was carried out to determine the T cell cross-reactivity of the Der p II and Der f II proteins. T cells primed with the Der f II protein were challenged with various Der f II peptides and a set of substantially matching Der p II peptides.
Another experiment following the procedure described in Example VIII analyzed the response of 29 patients primed in vitro to the Der p II protein and challenged with selected peptides derived from the Der p II sequence.

The subject of assay [2] is T cell lines primed in vitro to Der p I. Nature of the assay: secondary proliferation of Der p I-primed T cell lines (Examples V, VII, XI). Conditions: overlapping Der p I peptides; 33 positive experiments. As to the method:
10^7 PBMC from individual 543 were cultured in 10 ml RPMI-1640 containing 5% pooled human AB serum and supplemented with glutamine, penicillin, streptomycin and HEPES buffer in the presence of 20 μg/ml purified native Der p I/ml at 37° C. for 7 days. Viable cells were then purified by Ficoll-Hypaque centrifugation and cultured for 2 additional weeks in RPMI-1640/5% AB serum containing 5 units recombinant human IL-2/ml and 5 units recombinant human IL-4/ml. The resting T cells were then tested in a secondary proliferation assay to assess T cell responses to various house dust mite proteins and peptides. For assay, 2×10^4 resting T cells were cultured in 200 μl of RPMI-1640/5% AB serum for 3 days at 37° C. in the presence of 2×10^4 autologous Epstein-Barr virus transformed B cells (20,000 Rads) as antigen presenting cells with various concentrations of purified native Der p I or synthetic Der p I peptides. Each well then received 1 μCi tritiated thymidine for 16 hours. The counts incorporated were collected onto glass fiber filters and processed for liquid scintillation counting. Medium alone, acting as negative control, contained no allergen or peptide. The results of this experiment indicate that this particular patient responds with an S.I. of at least 2.0 to several peptides derived from the Der p I protein, including DP I-1, DP I-2, DP I-4, DP I-11, DP I-5, DP I-13, DP I-15, DP I-6.1, DP I-8, DP I-9, DP I-16, DP I-10 and DP I-17 (data not shown).
The above procedure was followed with a number of other house dust mite allergic individuals except a) in individual cases, the length of time of cultivation with IL-2 and IL-4 varied; b) in individual cases, the T cells were primed with either purified native (N) or recombinant (R) Der p I protein at either 20 μg/ml or 10 μg/ml; and c) in individual cases, x-irradiated (3500 Rads) autologous PBMC were used as antigen presenting cells in the secondary proliferation assay.
Individual results were considered positive and used if the individual responded to the Der p I protein and at least one peptide derived from Der p I at an S.I. of 2.0 or greater. The resting T cell lines primed with recombinant or native Der p I-stimulated PBMC were tested for reactivity to synthetic Der p I peptides. The maximum response for each peptide in a titration of the antigen is expressed as the T cell stimulation index (S.I.). The S.I. is the counts-per-minute (CPM) incorporated by cells in response to the peptide divided by the CPM incorporated by cells in medium only. […] However, only individual S.I. values greater than or equal to 2.0 (a response two-fold or greater over background), referred to herein as "positive" results, were used in calculating mean T cell stimulation indices for each peptide for the patient or group of patients tested. […] The T cell stimulation index is calculated by: [formula]
The bar represents the cumulative rank of the peptide response in the group of patients. To determine the cumulative rank, the 5 peptides with the highest S.I. in each individual were determined and assigned a numerical rank in descending order, with 5 representing the strongest response. The ranks for each peptide were then summed in the group of patients to determine the cumulative rank for the peptide. […] Given the percent positive and the mean T cell stimulation index, the positivity index (P.I.) for each peptide can be calculated.
The Der p I and Der f I proteins are very homologous (81% identity). Thus, experiments, similar to those of Example V, were carried out to determine the T cell responses of Der p I primed T cell lines when challenged with various Der p I peptides and substantially matching […].
The results of T cell studies using selected peptides derived from the Der p I, the Der f I, the Der p II and the Der f II proteins are shown in FIGS. 13-18a-d. […]

Assay [3] relates to PBMC from mite-allergic patient. The assay can be described thus: primary T cell (PBMC) proliferation, mite-allergic patient, tritiated thymidine. The following applies: medium 1071 ± 30. As to the method: Peripheral blood mononuclear cells (PBMC) were purified by Ficoll-Hypaque centrifugation of a peripheral blood specimen from mite-allergic patient and were assayed for proliferation in response to various antigens, i.e., affinity-purified Der p I, affinity purified Der p II, various Der p I and Der p II peptides. For assay, 5×10^4 PBMC were cultured in triplicate microwells for 7 days at 37° C. in the presence of various concentrations of antigen in 200 μl RPMI-1640 containing 5% human AB serum. Each well then received 1 μCi tritiated thymidine for 16 hours. The counts incorporated were collected onto glass fiber filters and processed for liquid scintillation counting. […] The CPM +/- standard deviation are shown. The stimulation index of each response (S.I.) is the ratio of the ^3 H-thymidine CPM incorporated by the cells in response to antigen divided by the ^3 H-thymidine CPM incorporated by cells in medium only. […] Thus, these peptides contain Der p I or Der p II T cell epitopes recognized by T cells from this particular allergic patient.

Assay [4] has as its system T cell lines primed in vitro to Der f I. The assay can be described thus: secondary proliferation of Der f I-primed T cell lines (Examples VI, VII, XI). Conditions: Der f I primed; 8 positive experiments; FIG. 8. As for the experimental part: Experiments similar to those of Example V were performed to determine. the T cell-reactive areas of the Der f I protein. For example, PBMC from house dust mite-allergic patient 783 were isolated as described in Example V and were stimulated in vitro-- with recombinant purified Der f I at 20 μg/ml. The results of the proliferation assay with Der f I peptides using x-irradiated (3500 Rads) autologous PBMC as antigen presenting cells indicate that T cells from this patient respond to the peptides DF I-8.1, DF I-9, DF I-6, DF I-10, DF I-2.1, DF I-3, DF I-11, DF I-5, DF I-1, and DF I-17 (data not shown).
The above procedure was followed in a number of patients except in individual cases, T cell lines were primed with affinity purified Der f I at 20 μg/ml or at 10 μg/ml and x-irradiated (25,000 Rads) autologous Epstein-Barr virus transformed B cells were used as antigen presenting cells. […]
Similarly, the procedure described in Example VI was followed with T cell lines from 9 patients primed in vitro to the Der f I protein then analyzed for response to selected peptides derived from the protein. The data was analyzed as described in Example VI. […]

The subject of assay [5] is T cell lines primed in vitro with Der p II. The assay can be described thus: T cell proliferation with fine map and modified Group II peptides (Example XIV). The following applies: FIGS. 32a-b. As to the method: Long term T cell lines were established by stimulation of 2×10^6 PBL/ml in bulk cultures of complete medium (RPMI-1640, 2 mM L-glutamine, 100 U/ml penicillin/streptomycin, 5×10^-5 M 2-mercaptoethanol, and 10 mM HEPES supplemented with 5% heat inactivated human AB serum) with 30 μg/ml of purified native Der p I or Der p II for 5-6 days at 37° C. in a humidified 5% CO2 incubator to select for house dust mite protein allergen reactive T cells. This amount of priming antigen was determined to be optimal for the activation of T cells from house dust mite allergic patients. Viable cells were purified by LSM centrifugation and cultured in complete medium supplemented with 5 units recombinant human IL-2/ml and 5 units recombinant human IL-4/ml for up to three weeks until the cells no longer responded to lymphokines and were considered "rested". The ability of the T cells to proliferate to selected peptides, purified Der p I or Der p II, or positive (PHA) controls or negative controls (medium only) was then assessed. For assay, 2×10^4 rested cells were restimulated in the presence of 2×10^4 autologous Epstein-Barr virus (EBV)-transformed B cells (prepared as described below) (gamma-irradiated with 25,000 RADS) or with 5×10^4 autologous PBMs (gamma-irradiated with 3500 RADS), with 2-50 μg/ml of purified native Der p I or Der p II in a volume of 200 μl complete medium in duplicate or triplicate wells in 96-well round bottom plates for 3 days. Each well then received 1 μCi tritiated thymidine for 16-20 hours. The counts incorporated were collected onto glass fiber filter mats and processed for liquid scintillation counting. […] The titrations were used to optimize the dose of peptides in T cell assays.
The maximum response in a titration of each peptide is expressed as the stimulation index (S.I.). The S.I. is the counts per minute (CPM) incorporated by cells in response to peptide, divided by the CPM incorporated by cells in medium only. […] The positive results were used in calculating mean stimulation indices for each peptide for the individual patient tested.
The above procedure was followed with 18 patients in the studies using peptides derived from Der p I and Der f I (FIGS. 31a-b), and 21 patients in the studies with Der p II peptides (FIGS. 32a-b). Individual patient results were used in calculating the mean S.I. for each peptide if the patient responded to the Der p I or Der p II protein at an S.I. of 2.0 or greater and the patient responded to at least one peptide derived from a house dust mite allergen at an S.I. f 2.0 or greater. A summary of positive experiments from the patients tested is shown in FIGS. 32a and 32b and FIGS. 33a and 33b. The bars represent the positivity index. […] In parenthesis above each bar are the mean stimulation indices for each peptide or protein for the group of patients tested.
Autologous EBV-transformed cell lines were γ-irradiated with 25,000 Rad and used as antigen presenting cells in secondary proliferation assays and secondary bulk stimulations. These EBV-transformed cell lines were made by incubating 5×10^6 PBL with 1 ml of B-59/8 Marmoset cell line (ATCC CRL1612, American Type Culture Collection, Rockville, Md.) conditioned medium in the presence of 1 μg/ml phorbol 12-myristate 13-acetate (PMA) at 37° C. for 60 minutes in 12×75 mm polypropylene round-bottom Falcon snap cap tubes (Becton Dickinson Labware, Lincoln Park, N.J.). These cells were then diluted to 1.25×10^6 cells/ml in RPMI-1640 as described above except supplemented with 10% heat-inactivated fetal bovine serum and cultured in 200 μl aliquots in flat bottom culture plates until visible colonies were detected. They were then transferred to larger wells until the cell lines were established.

For the substance “DP II-2: Der p II peptide (HEIKKVLVPGCHGSEPCIIHRGKPF)”, the T cell reactivity result in assay [1] (26 positive experiments) was “significant T cell reactivity”. Also, the T cell response result in assay [1] is “responds well”.
With “DP II-5: Der p II peptide (KIEIKASIDGLEVDVPGIDPNACHYMK)”, the “T-cell reactivity (DPII-22 series development)” value in assay [1] (Der p II T-cell map and analogs) is on record as “high T-cell reactivity”.
Consider “DP I-8: Der p I peptide (IKDLDAFRHYDGTRIIQRDNGYQPNY)”, for which, in assay [2], the T cell reactivity result is given as “significant regions of T cell reactivity”. In addition, the “CPM ± S.D.” value is given as 1439 ± 32 CPM in assay [3] (10 μg/ml), 1045 ± 32 CPM in assay [3] (30 μg/ml) and 2272 ± 40 CPM in assay [3] (100 μg/ml). Further, the “T cell response to Der p I peptides” value in assay [4] is listed as “respond significantly”.
For the substance “DPII-8: printed among the modified forms; SEQ ID NO 171 in b126, probably DP II-20.8 (DQVDVKDCANHEIKKVLVPGCHGSEPK)”, the “T cell response, Group II peptides” value in assay [5] is “positive T cell studies”.
Same read-out and setting: with “DP II-20: Der p II peptide (DQVDVKDCANHEIKKVLVPGCHGSEP)” the entry was “positive T cell studies”.
With “DP II-3: Der p II peptide with a low number of conservative changes from the native sequence (HGSEPCIIHRGKPFQLEAVFEAVQNTKTA)”, the T cell reactivity entry in assay [1] (26 positive experiments) is listed as “significant T cell reactivity”.
Turning to “DP II-8: Der p II peptide (DIKYTWNVPKIAPKSENVVVTVKVMG)”, in assay [1] (26 positive experiments), the T cell reactivity result is on record as “significant T cell reactivity”. Also, the T cell response entry in assay [1] is “responds well”.
“DP II-9: Der p II peptide (VVTVKVMGDDGVLACAIATHAKIRD)”: the “CPM ± S.D.” value was 3970 ± 87 CPM in assay [3] (10 μg/ml), 4464 ± 86 CPM in assay [3] (30 μg/ml) and 2237 ± 53 CPM in assay [3] (100 μg/ml). Also, the T cell reactivity result in assay [1] (26 positive experiments) is reported as “significant T cell reactivity”. The T cell response entry in assay [1] is reported as “responds well”.
Take “DF II-18: Der f II peptide (DAKYTWNVPKIAPKSENVVVTVKLVG)”: the “T cell response to Der f II peptides” value in assay [1] (Der p II primed, 26 positive experiments, FIG. 12) was “respond significantly”.

These data come from patent publication US5968526A, “T cell epitopes of the major allergens from Dermatophagoides (house dust mite)” (Immulogic Pharamaceutical Corporation, priority 1995, dated 1999).
